This note sets out measurements from patent publication US20090074911A1, “Indicia-Bearing Package For Delivery Systems” (CADBURY ADAMS USA LLC, priority 2005, published 2009).

The series can be described thus: Discoloration (degradation) of sucralose during encapsulation. It counts as physicochemical. As for the experimental part:
As one example of a hydrophilic coating, sucralose was mixed with powdered polyvinyl acetate and 5% fat and extruded at 110° C. […] In an alternative encapsulation, sucralose was mixed with powdered polyvinyl acetate, 2% polyvinylpyrollidone and 1% magnesium stearate and pressed into tablets at 25° C. The tablets were then heated to 80° C., which softened the polymer and fused the polyvinylacetate with the sucralose. […] Thereafter, the tablets were cooled, ground and sized and analyzed. […] As another example, a polymer/sweetener matrix was prepared as described above in this paragraph. A solution of gum arabic was made and coated on the polymer/sweetener matrix particles using the method described in U.S. Pat. No. 3,196,827, the relevant portions of which are incorporated herein by reference. Coating levels were 20, 30, 40, and 50% for different samples. Chewing gums prepared with the coated polymer/sweetener matrix particles were chewed by a panel with bolus collection at 5, 10, 15, 20 minutes. Residual sucralose was analyzed in each chewed bolus.

Turning to `OC[C@H]1O[C@H](O[C@]2(CCl)O[C@H](CCl)[C@@H](O)[C@@H]2O)[C@H](O)[C@@H](O)[C@H]1Cl` [sucralose], the “discoloration indicating degradation of the sucralose” value (mixed with powdered polyvinyl acetate and 5% fat, extruded at 110° C.) is listed as “Extensive discoloration”. Also, the “discoloration of the sucralose” value runs as follows: (mixed with powdered polyvinyl acetate, 2% polyvinylpyrollidone, 1% magnesium stearate, pressed into tablets at 25° C., heated to 80° C.) “No discoloration”; (same tablets after being cooled, ground, sized and analyzed) “no discoloration”.
